From patent US20100048604A1, “Ligands for Aldoketoreductases” (priority 2004, published 2010)

What was measured:
AKR1C3 = molecular target: T1, AKR1C3 (Homo sapiens, UniProt P42330); test: Steady state kinetic parameters of fluorogenic substrates with purified AKR1C isozymes; assay type: biochemical
T1 construct: gift of Professor Trevor Penning (University of Pennsylvania School of Medicine)
T1 sequence (P42330 1-323): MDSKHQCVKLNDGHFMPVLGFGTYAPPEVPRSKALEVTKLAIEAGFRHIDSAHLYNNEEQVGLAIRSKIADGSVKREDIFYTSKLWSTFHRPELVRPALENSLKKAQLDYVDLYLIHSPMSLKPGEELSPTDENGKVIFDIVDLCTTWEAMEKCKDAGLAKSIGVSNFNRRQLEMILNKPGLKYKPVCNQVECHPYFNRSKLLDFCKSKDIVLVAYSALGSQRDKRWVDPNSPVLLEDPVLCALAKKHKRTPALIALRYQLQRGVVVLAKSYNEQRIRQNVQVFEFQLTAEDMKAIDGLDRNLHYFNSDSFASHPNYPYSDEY
Procedure: The initial reaction rates were used to derive standard kinetic parameters (kcat and Km, Materials and Methods).
Substrate tolerance of AKR1Cs: Isozyme Activity with 5a-5i: Activity of the second generation of fluorogenic substrates with the AKR1C isozymes was determined as follows. […] After mixing the aqueous components thoroughly, 20 μL of acetonitrile was added as a cosolvent and mixed well. […] 4 μL of undiluted AKR1C (provided generously by the Penning lab at concentrations of 2.5 mg/mL) were then added to the cuvette for a total of 10 μg purified enzyme in the 1 mL assay volume. Fluorescence arising from the respective alcohol reduction product was then monitored over the course of 5-10 minutes.
Binding constant and catalytic rates (Km and kcat) of the second generation of fluorogenic substrates was determined as follows. […] After mixing the aqueous components thoroughly, 20 μL of acetonitrile was added as a cosolvent and mixed well. […] To initiate the reduction, 2 or 4 μL of diluted AKR1C (1:2 to 1:100, depending on the kinetics of a particular isozyme's reduction of a substrate) was then added to the cuvette. Fluorescence arising from the respective alcohol reduction product was then monitored over the course of 3 minutes (Excitation and emission band pass slits both at 4 nm, lamp 700 V, λexc 410 nm, λem 510).
initial rate=[nst×(Ft−F0)/(Fst)]/t (1)
where Ft and F0 represent the fluorescence at times t and 0 minutes, nst is the nanomoles of product in a known concentration of product, and Fst is the fluorescence resulting from nst of product. […] Reported enzymatic kinetic parameters are the average of three independent determinations from three different preparations of substrate and enzyme.

HepG2 cell fractions = test: Metabolism of phenyl ketone 5c in HepG2 cell fractions; assay type: in vitro ADME, human; conditions: 10 μM 5c
Procedure: FIG. 17. Reactivity of HepG2 cell fractions with 5c. Assays were performed in 50 mM Tris-HCl buffer containing 1 mM NADPH, 10 μM 5c and 80 μg protein/mL, incubated for 60 minutes. Legend: (+) without flufenamic acid; (−) with 100 μM flufenamic acid; HepG2=hepatoma cell line.
Selectivity of Phenyl Ketone Probe 5c in Cellular Lysates: The selectivity of phenyl ketone probe 5c in human hepatoma cells (HepG2), which are known to express all four AKR1C isozymes in the cytoplasm, was tested. […] An issue may be non-selective reduction of probes with microsomes, which are organelles enriched with redox enzymes. Following one hour incubation of probe 5c with both cytosolic and microsomal fractions prepared from HepG2 cells, the resulting mixtures were analyzed fluorimetrically. […] Moreover, reduction by the cytoplasmic extract was suppressed by flufenamic acid, a known inhibitor of the AKR1C isozymes (Penning, T. M.; Talalay, P. Proc Natl Acad Sci USA 1983, 4504-4508).
HepG2 cells were obtained from and grown in the Penning laboratory (University of Pennsylvania School of Medicine). Cells were maintained at 37° C. and 5% CO2 containing Eagle's minimal essential medium supplemented with 100 U/mL penicillin, 100 μg/mL streptomycin, 2 mM L-glutamine, and 10 % heat-inactivated fetal bovine serum.
To measure metabolism of 5c in HepG2 cell fractions, the cells were harvested and fractionized as follows. HepG2 cells were grown to confluency on eight 15×100 mm dishes, whereupon 500 μL of ice cold Tris-HCl-sucrose buffer (50 mM Tris-HCl at pH 7.4, 250 mM sucrose, 1 mM EDTA, and 1 mM 2-mercaptoethanol) was added to each dish. Cells were scratched off and taken up directly into an ice cold potter. These cells were then homogenized and sonicated (10 one-second 10 W bursts, four times on ice). […]
Protein concentrations for whole or fractionized HepG2 cells were determined by standard Bradford assays (Bradford, M. M.; Anal. Biochem. 1976, 72, 248). […] Reactions were initiated with 80 μg of protein per 1 mL assay and monitored fluorimetrically for up to 2 hours. […]

[1] = Solubility in DMSO, methanol and acetonitrile; assay type: physicochemical; conditions: methanol, acetonitrile, organic solvent or mixture, read-out: solubility class (asterisk) in DMSO, methanol, and acetonitrile
[2] = molecular target: T2, Pseudomonas testosteroni 3α-hydroxysteroid dehydrogenase (Comamonas testosteroni, UniProt P80702); test: Enzymatic screening of probes 1-7 against a panel of oxidoreductases; assay type: biochemical; conditions: 12 hour incubation, 30-50 μM substrate, pH 7, 250 μM NAD(P)H
T2 construct: purchased Sigma (St. Louis, Mo.) Lot Number 053K8624 (catalogue number not given)
T2 sequence (P80702 whole entry): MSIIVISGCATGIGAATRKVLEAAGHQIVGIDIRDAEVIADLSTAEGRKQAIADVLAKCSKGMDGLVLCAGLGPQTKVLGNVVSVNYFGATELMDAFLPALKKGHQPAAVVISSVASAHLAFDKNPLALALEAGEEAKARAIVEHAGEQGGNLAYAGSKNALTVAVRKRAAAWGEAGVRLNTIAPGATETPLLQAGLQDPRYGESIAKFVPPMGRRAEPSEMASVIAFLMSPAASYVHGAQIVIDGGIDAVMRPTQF
Procedure: (§1) FIG. 4. Screening of probes 1-7 against a panel of oxidoreductases Percentage fluorescence increase after 12 hour incubation of 30-50 μM substrate, 100 mM phosphate buffer (pH 7), 250 μM NAD(P)H, and 100 nM enzyme. Substrates 1, 2, 3, and 4 monitored at λexc=340 nm, λem=440 nm. Substrates 5, 6, and 7 monitored at λexc=440 nm, λem=510 nm. 3HSD, 3α-hydroxysteroid dehydrogenase (PT, Pseudomonas testosteroni), HLAD, horse liver alcohol dehydrogenase, TBAD, Thermoanaerobium brockii alcohol dehydrogenase, BS 12HSD, Bacillus sp. 12α-hydroxysteroid dehydrogenase, ABAD, amyloid-β binding alcohol dehydrogenase (human), GDH, glycerol dehydrogenase, YADH, yeast alcohol dehydrogenase, LDH, lactate dehydrogenase.
(§2) Probes 1-7 (see FIG. 3) were subsequently tested against a collection of dehydrogenases in the presence of NAD(P)H; the extent of reduction was assessed by the measurement of fluorescence intensity at the emission maximum of each probe (FIG. 4). This assay included enzymes from two major oxidoreductase superfamilies, the short chain alcohol dehydrogenases (SDR) and the aldo-keto reductases (AKR), ranging from bacterial to mammalian and human enzymes.
(§3) Horse Liver alcohol dehydrogenase (Lot Number 51K7520), Thermoanaerobium brockii NADP^+ dependent alcohol dehydrogenase (Lot Number 033K4093), Pseudomonas testosteroni 3α-hydroxysteroid dehydrogenase (Lot Number 053K8624), and Bacillus sphaericus 12α-hydroxysteroid dehydrogenase (Lot Number 70K16621) were purchased from Sigma (St. Louis, Mo.). Yeast alcohol dehydrogenase (Lot Number 93122920), glycerol dehydrogenase (Lot Number 92110122), (D)-lactate dehydrogenase (Lot Number 92419236), (L)-lactate dehydrogenase (Lot Number 92801821), NAD^+, NADP^+, NADH, and NADPH were purchased from Roche. Enzyme activity was confirmed by compliance to supplier's quality control assays prior to usage. Rat and human 3α-hydroxysteroid dehydrogenases were provided by Professor Trevor Penning (University of Pennsylvania School of Medicine) and human amyloid-β peptide binding alcohol dehydrogenase was supplied by Professor Shi Du Yan (Columbia University School for Physicians and Surgeons).
(§4) Enzymatic assays were performed in triplicate on selected fluorogenic substrates according to the following protocol. To each well of a FALCON 96-well black flat bottom plate was added (1) 40 μL of 500 mM potassium phosphate buffer pH 7.0, (2) 113 μL of double deionized water, (3) 25 μL of 2 mM NADH (except for Pseudomonas testosteroni 3α-hydroxysteroid dehydrogenase, rat 3α-hydroxysteroid dehydrogenase, and Thermoanaerobium brockii NADP^+ dependent alcohol dehydrogenase, in which cases 2 mM of NADPH was used), (4) 2 μL of a 3-5 mM solution of substrate in DMSO, and (5) 20 μL of a 40-50 μg/mL solution of enzyme. Reaction volumes were mixed thoroughly after addition of cofactor, substrate, and enzyme and allowed to react 12 hours at 25° C. Scanning of the 96-well plate was performed by the MicroMax 384 connected to a Jobin Yvon Fluorolog through F-3000 fiber optic cables.
(§5) Initial Screening with Fluorogenic Substrates: Screening of the first fluorogenic substrates for enzymatic activity has been described above. In short, 200 μL enzymatic assay volumes containing 100 mM potassium phosphate buffer (pH 7), 250 μM NAD(P)H cofactor, and 30-50 μM of ketones (1-7) were incubated for 12 hours on a black FALCON 96-well plate. Formation of the alcohol reduction product was determined by reading the fluorescence arising from excitation at the corresponding alcohol at either 340 nm (27-30) or 440 nm (31-33).

[3] = molecular target: T3, rat 3α-hydroxysteroid dehydrogenase (Rattus norvegicus, UniProt P23457); test: as above; assay type: biochemical; conditions: 12 hour incubation, 30-50 μM substrate, pH 7, 250 μM NAD(P)H
T3 construct: gift of Professor Trevor Penning (University of Pennsylvania School of Medicine)
T3 sequence (P23457 1-322): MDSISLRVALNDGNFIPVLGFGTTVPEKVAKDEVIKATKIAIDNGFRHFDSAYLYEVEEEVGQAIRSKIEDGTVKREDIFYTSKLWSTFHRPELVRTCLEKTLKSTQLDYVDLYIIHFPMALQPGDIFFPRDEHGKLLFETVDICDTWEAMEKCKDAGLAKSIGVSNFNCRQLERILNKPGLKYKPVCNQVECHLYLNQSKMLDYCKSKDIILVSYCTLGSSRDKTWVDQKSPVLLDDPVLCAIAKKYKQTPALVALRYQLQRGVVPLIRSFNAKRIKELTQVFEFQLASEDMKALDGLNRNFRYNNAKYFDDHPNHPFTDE
Procedure: as §1, §2, §3, §4, §5

[4] = isozyme 1C3, potassium phosphate buffer pH 6, NADPH, fluorimetric

## O=C(c1ccccc1)c1cc(=O)oc2c3c4c(cc12)CCCN4CCC3 [5c, 8-Benzoyl-2,3,5,6-tetrahydro-1H,4H-11-oxa-3a-aza-benzo[de]anthracen-10-one]
AKR1C3; AKR1C3, value of the text
  Km: 0.051 µM
AKR1C3; [4]
  Kcat: 0.0988 s⁻¹
  Km: 0.05 µM
HepG2 cell fractions; HepG2 cytosolic fraction, 1 mM NADPH, 80 μg protein/mL, one hour incubation
  reduction in cytoplasmic (cytosolic) fraction: enzymatic reduction occurred
HepG2 cell fractions; HepG2 microsomes, 1 mM NADPH, 80 μg protein/mL, one hour incubation
  stability / reduction in microsomal fraction: stable in the presence of microsomes

## COc1ccc2cc(-c3ccc(C(C)=O)cc3)c(=O)oc2c1 [VB11]
[1]
  solubility: > 1000 µM

## CC(=O)c1ccc(-c2cc3cc4c5c(c3oc2=O)CCCN5CCC4)cc1 [VB35]
[1]
  solubility: > 1000 µM

## CC(=O)c1ccc(-c2cc3cc4c5c(c3oc2=O)CCCN5CCC4)cc1 [compound 6, 9-(4-Acetyl-phenyl)-2,3,5,6-tetrahydro-1H,4H-11-oxa-3a-aza-benzo[de]anthracen-10-one]
[2]
  reduction of probe (fluorescence increase): good conversion
[3]
  reduction of probe (fluorescence increase): good conversion

## O=C(O)c1ccccc1Nc1cccc(C(F)(F)F)c1 [flufenamic acid, reference compound]
HepG2 cell fractions; 100 μM flufenamic acid, HepG2 cytoplasmic extract
  effect on reduction of 5c by the cytoplasmic extract: suppressed
